Measured values reported in article PMC8642446 (Acta Pharmaceutica Sinica. B, 2021).

Molecular target: T1, ICAT (inhibitor of β-catenin and T-cell factor; β-catenin-interacting protein 1) (Homo sapiens, UniProt Q9NSA3)
T1 sequence (Q9NSA3 1-81): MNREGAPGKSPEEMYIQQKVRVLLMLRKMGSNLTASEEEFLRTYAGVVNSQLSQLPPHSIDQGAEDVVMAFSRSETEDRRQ
Assay: MST with EGFP-ICAT in cell lysate
Format: binding

SMILES: CC1=CC(=O)[C@@H](O)[C@]2(C)[C@H]3[C@@H](O)[C@H](O)[C@]4(C)OC[C@@]35[C@@H](C[C@@H]12)OC(=O)[C@H](O)[C@]54O [BD, Bruceine D]
- Kd: 33.2 µM
